Tests used:
[1] = Binding affinity to G-rich HRAS DNA (unknown origin) assessed as binding constant by SPR analysis
[2] = Binding affinity to G-rich NRAS RNA (unknown origin) assessed as binding constant by SPR analysis
[3] = test system: DHX36/c-MYC G4 quadruplex DNA; assay: Disruption of DHX36/c-MYC G4 quadruplex DNA (unknown origin) interaction incubated for 1 hrs by ELISA; format: protein assay
[4] = test system: BLM/c-MYC G4 quadruplex DNA; assay: Disruption of BLM/c-MYC G4 quadruplex DNA (unknown origin) interaction incubated for 1 hrs by ELISA; format: protein assay
[5] = target: Quadruplex DNA; assay: Binding affinity to c-MYC G4- quadruplex DNA Pu22 (unknown origin) assessed as binding constant by SPR analysis; format: nucleic-acid assay
[6] = Binding affinity to Hairpin DNA (unknown origin) assessed as binding constant by SPR analysis
[7] = Binding affinity to G-rich KRAS DNA (unknown origin) assessed as binding constant by SPR analysis
[8] = target: RNA; assay: Binding affinity to NRAS RNA mutant (unknown origin) assessed as binding constant by SPR analysis
[9] = test system: Quadruplex DNA; assay: Stabilization of c-MYC G4 quadruplex DNA Pu22 (unknown origin) assessed as change in melting temperature at 2 uM by CD spectroscopy; format: nucleic-acid assay
[10] = test system: NM23-H2/c-MYC G4 quadruplex DNA; assay: Disruption of NM23-H2/c-MYC G4 quadruplex DNA (unknown origin) interaction incubated for 1 hrs by ELISA; format: protein assay
[11] = Binding affinity to human G-rich Htg22 DNA assessed as binding constant by SPR analysis
[12] = target: Quadruplex DNA; assay: Binding affinity to c-MYC G4 quadruplex DNA Pu22 (unknown origin) assessed as binding constant by SPR analysis; format: nucleic-acid assay
[13] = test system: MDA-MB-231; assay: Cytotoxicity against human MDA-MB-231 cells assessed as reduction in cell viability measured after 48 hrs by MTT assay; format: functional, cell-based; settings: MDA-MB-231, 48 h
[14] = Cytotoxicity against human HBL-100 cells assessed as reduction in cell viability measured after 48 hrs by MTT assay; format: toxicity, cell-based
[15] = test system: HepG2; assay: Cytotoxicity against human HepG2 cells assessed as reduction in cell viability measured after 48 hrs by MTT assay; format: functional, cell-based; settings: HepG2, 48 h

Row | Compound | Kd [1] [µM] | Kd [2] [µM] | IC50 [3] [µM] | IC50 [4] [µM] | Kd [5] [µM] | Kd [6] [µM] | Kd [7] [µM] | Kd [8] [µM] | ΔTm [9] [°C] | IC50 [10] [µM] | Kd [11] [µM] | Kd [12] [µM] | IC50 [13] [µM] | IC50 at 48 h [14] [µM] | IC50 [15] [µM]
1 | COc1ccc(-n2c(-c3ccc4c(c3)c3ccccc3n4Cc3cn(CCOCCO[C@@H]4O[C@H](COC(C)=O)[C@@H](OC(C)=O)[C@H](OC(C)=O)[C@H]4OC(C)=O)nn3)nc(-c3ccc(N4CCN(C)CC4)cc3)c2-c2ccc(N3CCN(C)CC3)cc2)cc1 | > 20 | > 20 |  |  | 3 | > 20 | > 20 | > 20 | 15.9 |  | > 20 | > 20 | 6.4 | 19.3 | 11
2 | CCn1c2ccccc2c2cc(-c3nc(-c4ccc(N5CCN(C)CC5)cc4)c(-c4ccc(N5CCN(C)CC5)cc4)n3-c3ccc(OCCCOC4(C)O[C@H]5O[C@H](COC(C)=O)[C@@H](OC(C)=O)[C@H](OC(C)=O)[C@H]5O4)cc3)ccc21 (single isomer, unassigned) | > 20 | > 20 |  |  | 4.1 | > 20 | > 20 | > 20 | 16 |  | > 20 | > 20 | 3.6 | 4.4 | 7.8
3 | CCn1c2ccccc2c2cc(-c3nc(-c4ccc(N5CCN(C)CC5)cc4)c(-c4ccc(N5CCN(C)CC5)cc4)n3-c3ccc(OCCOCCO[C@@H]4O[C@H](CO)[C@@H](O)[C@H](O)[C@H]4O)cc3)ccc21 (single isomer, unassigned) | > 20 | > 20 |  |  | 1.6 | > 20 | > 20 | > 20 | 18 |  | > 20 | > 20 | > 32 |  | > 32

The next compounds have a lower Kd [1] than those just listed; values first:

Row | Kd [1] [µM] | Kd [2] [µM] | IC50 [3] [µM] | IC50 [4] [µM] | Kd [5] [µM] | Kd [6] [µM] | Kd [7] [µM] | Kd [8] [µM] | ΔTm [9] [°C] | IC50 [10] [µM] | Kd [11] [µM] | Kd [12] [µM] | Compound | IC50 [13] [µM] | IC50 at 48 h [14] [µM] | IC50 [15] [µM]
4 | 13.9 | > 20 | 15.9 | 6.8 | 1.8 | > 20 | 12.7 | > 20 | 22.1 | 3.7 | > 20 | > 20 | CCn1c2ccccc2c2cc(-c3nc(-c4ccc(N5CCN(C)CC5)cc4)c(-c4ccc(N5CCN(C)CC5)cc4)n3-c3ccc(OCCOCCOC4(C)O[C@H]5O[C@H](COC(C)=O)[C@@H](OC(C)=O)[C@H](OC(C)=O)[C@H]5O4)cc3)ccc21 (single isomer, unassigned) | 2.9 | 77.8 | 3
5 | 5.9 | 15.8 | 8.2 | 3.9 | 2.6 | > 20 | 8.2 | > 20 | 20.8 | 1.1 | > 20 | > 20 | CCn1c2ccccc2c2cc(-c3nc(-c4ccc(N5CCN(C)CC5)cc4)c(-c4ccc(N5CCN(C)CC5)cc4)n3-c3ccc(OCCOCCO)cc3)ccc21 |  |  | 
6 | 2.5 | 11.7 |  |  | 1.7 | > 20 | 4.8 | > 20 | 19.2 |  | > 20 | > 20 | CCn1c2ccccc2c2cc(-c3nc(-c4ccc(N5CCN(C)CC5)cc4)c(-c4ccc(N5CCN(Cc6cn(CCOCCO[C@@H]7O[C@H](CO)[C@@H](O)[C@H](O)[C@H]7O)nn6)CC5)cc4)[nH]3)ccc21 (single isomer, unassigned) |  |  | 

Source: ChEMBL document CHEMBL5104180, “Design, Synthesis, and Evaluation of New Sugar-Substituted Imidazole Derivatives as Selective c-MYC Transcription Repressors Targeting the Promoter G-Quadruplex” (J Med Chem, 2022)
